The values below come from PMC12449476, “Transient ligand contacts of the intrinsically disordered N-terminus of neuropeptide Y2 receptor regulate arrestin-3 recruitment” (Nature Communications, 2025).

For experiment [1], the system named is bicelle-reconstituted full-length cysteine-deficient Y2R. In words: XL-MS competition experiment. The following applies: 50 × molar excess competitor. The class given is binding, human. As for the experimental part: (§1) Samples were denatured in 10% SDS, 100 mM Tris-HCl (pH 7.5) and subjected to S-Trap enrichment (Protifi, Fairport, NY, USA). Afterwards, proteins were reduced, alkylated, and enzymatically digested with AspN and trypsin according to an existing protocol. Samples were stored at − 20 °C before LC-MS analysis.

In another experiment the target is T1, WT Nluc-Y2R-eYFP (Homo sapiens, UniProt P49146).
T1 construct: expressed in transfected cells; host or cells: membrane preparations of transiently transfected HEK293
T1 sequence (P49146 1-381): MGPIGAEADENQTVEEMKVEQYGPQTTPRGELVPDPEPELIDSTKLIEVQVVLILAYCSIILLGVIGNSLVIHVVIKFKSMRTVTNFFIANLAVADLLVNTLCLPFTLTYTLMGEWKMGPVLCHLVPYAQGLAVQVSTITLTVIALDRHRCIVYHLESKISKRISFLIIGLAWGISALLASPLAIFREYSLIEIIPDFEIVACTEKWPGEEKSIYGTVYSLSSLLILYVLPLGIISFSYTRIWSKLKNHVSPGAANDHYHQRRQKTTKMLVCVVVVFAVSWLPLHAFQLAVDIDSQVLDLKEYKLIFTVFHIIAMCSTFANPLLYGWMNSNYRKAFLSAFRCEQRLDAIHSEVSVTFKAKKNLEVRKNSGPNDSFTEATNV
The following applies: small molecule antagonist vs labeled NPY; cited from earlier work. An excerpt: In the following, we are addressing the Reviewer’s comments point‐by‐point. We quote statements from the Reviewer in bold face. We refer to changes made in the manuscript in yellow italics. Reviewer #1 (Remarks to the Author): In this work ...

The test system of experiment [2] is bicelle-reconstituted full-length cysteine-deficient Y2R. The experiment is described as follows: XL-MS with full-length Y2R. It counts as binding, human. The following applies: LC-TIMS-MS/MS. How it is done: as §1
Peptide mixtures were reconstituted in an aqueous solution of 3% (v/v) ACN and 0.05% (v/v) TFA prior to LC-TIMS-MS/MS analysis on an UltiMate 3000 RSLC nano-HPLC system (Thermo Fisher Scientific, Waltham, MA, USA) coupled to a timsTOF Pro mass spectrometer (Bruker Daltonics, Bremen, Germany). Peptides were trapped and desalted on a C18 precolumn (Acclaim PepMap 100, 300 μm × 5 mm, 5 μm, 100 Å, Thermo Fisher Scientific, Waltham, MA, USA) with aqueous 0.1 % (v/v) TFA at a flow rate of 30 μL/min (precolumn temperature 50 °C). Using a flow of 300 nL/min, peptide mixtures were then eluted and separated on a self-packed Picofrit C18 column, 75 µm ID x 40 cm, Tip ID 15 µm (New Objective, Littleton, MA, USA), packed with Reprosil-Pur 120 C18-AQ, 3 µm, 120 Å material (Dr. Maisch GmbH, Ammerbuch, Germany) or a µPAC 50 C18 column (PharmaFluidics, Thermo Fisher Scientific, Germany). Linear gradients were from 3% to 50% B over 90 min, 50% to 85% B (over 5 min) and 85% B (5 min); solvent A: water containing 0.1% (v/v) formic acid and solvent B: acetonitrile containing 0.1% (v/v) formic acid, the separation column was kept at 40 °C. To align results obtained with different chromatographic conditions, unmodified peptides were used as indexed retention time (iRT) standards.
Identification of cross-links was performed by a MeroX (v. 2.0.1.7, ref. [77]) search against a fasta file containing the amino acid sequences of triply diazirine-substituted [L17pL, L24pL, L30pL] […] The following settings were employed: semi-specific proteolytic cleavage: C-terminal at Lys and ArgR and N-terminal at Asp and Glu with up to 3 missed cleavages for each site and a maximum of 5 missed cleavages per peptide; peptide length of 4–25 amino acids; fixed modifications: carbamidomethylation of Cys; variable modifications: oxidation of Met; precursor and fragment mass tolerances were set to 10 ppm. […] Two searches were performed per data set, considering photo-leucine reactivity towards (i) only the acidic amino acids Asp and Glu and the protein C-terminus and (ii) reactivity towards all 20 amino acids. Peptide spectral matches were initially filtered to a 10% intensity score, a minimum score cut-off of 30 and 1% FDR (false discovery rate). Lenient FDR filters were compensated by manual validation of all proposed cross-links. In addition, DDA-PASEF data were analyzed with Skyline[78] as described recently. […]

The next experiment concerns photo-NPY. In words: XL-MS, intramolecular NPY cross-links. It counts as binding. The following applies: detected in N-term peptide experiment only. As for the experimental part: as §1
Peptide mixtures were reconstituted in an aqueous solution of 3% (v/v) ACN and 0.05% (v/v) TFA prior to LC-TIMS-MS/MS analysis on an UltiMate 3000 RSLC nano-HPLC system (Thermo Fisher Scientific, Waltham, MA, USA) coupled to a timsTOF Pro mass spectrometer (Bruker Daltonics, Bremen, Germany). Peptides were trapped and desalted on a C18 precolumn (Acclaim PepMap 100, 300 μm × 5 mm, 5 μm, 100 Å, Thermo Fisher Scientific, Waltham, MA, USA) with aqueous 0.1 % (v/v) TFA at a flow rate of 30 μL/min (precolumn temperature 50 °C). […]
Identification of cross-links was performed by a MeroX (v. 2.0.1.7, ref. [77]) search against a fasta file containing the amino acid sequences of triply diazirine-substituted [L17pL, L24pL, L30pL] […] In addition, DDA-PASEF data were analyzed with Skyline[78] as described recently. […]

Consider `CCN(CC)C(=O)C(c1ccccc1)N1CCN(c2ccc(NC(=O)c3ccccc3-c3cccnc3)cc2F)CC1` (stereo not shown) [JNJ-31020028, N-(4-{4-[2-(diethylamino)-2-oxo-1-phenylethyl]piperazin-1-yl}-3-fluorophenyl)-2-pyridin-3-ylbenzamide], for which the “Effect of excess unlabeled ligand on cross-links” value in experiment [1] is given as “essentially abolished all cross-links”. The “Blocking of high- and low-affinity binding” value at WT Nluc-Y2R-eYFP is “can be blocked”.
“photo-NPY: triply diazirine-substituted photo-leucine [L17pL, L24pL, L30pL] NPY variant”: in experiment [2], the “Number of contact points to Y2R NT” value stood at 16, the “Number of contacts to ECL2” value is reported as “three” and the “Number of cross-links to extracellular regions of Y2R” value is on record as 34. Besides, in experiment [2] (total), the “Number of peptide-receptor cross-links” value was determined as 40. Moreover, the Intra-NPY cross-linked positions result in the experiment with photo-NPY is “pL30 & D6”.
